Experimental data reported in ChEMBL document CHEMBL1152711, “Synthesis and SAR of potent LXR agonists containing an indole pharmacophore” (Bioorg Med Chem Lett, 2009).

Legend:
[1] = biological target: T1, Oxysterols receptor LXR-beta (Homo sapiens, UniProt P55055); experiment: Agonist activity at LXRbeta by FRET assay; type: functional
T1 sequence (P55055 whole entry): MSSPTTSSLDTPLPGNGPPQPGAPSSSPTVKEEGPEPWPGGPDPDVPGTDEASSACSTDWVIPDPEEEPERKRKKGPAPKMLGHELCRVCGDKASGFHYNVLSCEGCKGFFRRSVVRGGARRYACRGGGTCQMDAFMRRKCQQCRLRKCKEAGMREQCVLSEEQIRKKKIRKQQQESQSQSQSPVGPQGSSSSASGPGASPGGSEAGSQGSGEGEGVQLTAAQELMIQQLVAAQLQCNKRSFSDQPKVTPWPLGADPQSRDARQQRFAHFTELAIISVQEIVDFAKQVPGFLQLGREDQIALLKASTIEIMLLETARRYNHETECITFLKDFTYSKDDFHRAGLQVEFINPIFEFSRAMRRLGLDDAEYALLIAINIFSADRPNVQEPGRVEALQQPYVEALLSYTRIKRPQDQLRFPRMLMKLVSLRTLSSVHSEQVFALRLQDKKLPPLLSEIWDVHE

[2] = biological target: T2, Oxysterols receptor LXR-alpha (Homo sapiens, UniProt Q13133); experiment: Agonist activity at LXRalpha by FRET assay; type: functional
T2 sequence (Q13133 whole entry): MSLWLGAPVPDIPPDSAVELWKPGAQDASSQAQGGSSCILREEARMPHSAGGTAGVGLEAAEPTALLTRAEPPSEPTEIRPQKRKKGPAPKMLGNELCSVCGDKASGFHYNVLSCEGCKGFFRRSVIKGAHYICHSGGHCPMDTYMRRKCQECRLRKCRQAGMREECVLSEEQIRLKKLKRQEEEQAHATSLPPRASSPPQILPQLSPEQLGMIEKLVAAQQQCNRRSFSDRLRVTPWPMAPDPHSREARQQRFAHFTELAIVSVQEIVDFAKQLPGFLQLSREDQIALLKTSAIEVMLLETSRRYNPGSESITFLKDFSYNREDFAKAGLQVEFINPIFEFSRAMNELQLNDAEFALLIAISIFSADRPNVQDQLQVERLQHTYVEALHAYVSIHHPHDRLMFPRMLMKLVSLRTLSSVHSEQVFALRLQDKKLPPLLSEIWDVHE

[3] = biological target: T3, Oxysterols receptor LXR-alpha (Homo sapiens) (UniProt Q13133); experiment: Agonist activity at LXRalpha by FRET assay relative to GW-3965A; type: functional
T3 sequence (whole entry): T2 sequence (Q13133 whole entry)

[4] = biological target: T4, Oxysterols receptor LXR-beta (Homo sapiens) (UniProt P55055); experiment: Agonist activity at LXRbeta by FRET assay relative to GW-3965A; type: functional; parameters: concentration or dose not given beside the values
T4 sequence (whole entry): T1 sequence (P55055 whole entry)

Mus musculus = species on record: Mus musculus; experiment: Increase in ABCA1 expression in mouse macrophages by cholesterol efflux assay
[5] = Oral bioavailability in Sprague-Dawley rat at 2.1 mg/kg; type: ADME, organism-based; conditions: in vivo
[6] = Volume of distribution at steady state in Sprague-Dawley rat at 1.1 mg/kg, iv or 2.1 mg/kg, po; type: ADME, organism-based; conditions: in vivo, read-out: Vdss
[7] = Cmax in Sprague-Dawley rat at 2.1 mg/kg, po; type: ADME, organism-based; parameters: dose 2.1 mg/kg, route oral; conditions: in vivo
[8] = Half life in Sprague-Dawley rat at 1.1 mg/kg, iv; type: ADME, organism-based; parameters: dose 1.1 mg/kg, route intravenous; conditions: in vivo
[9] = Half life in Sprague-Dawley rat at 2.1 mg/kg, po; type: ADME, organism-based; parameters: dose 2.1 mg/kg, route oral; conditions: in vivo
[10] = Plasma clearance in Sprague-Dawley rat at 1.1 mg/kg, iv or 2.1 mg/kg, po; type: ADME, organism-based

| SMILES | EC50 [1] [nM] | EC50 [2] [nM] | Activity [3] [%] | Activity [4] [%] | EC50 (Mus musculus) [nM] | bioavailability [5] [%] | Vd [6] [L/kg] | Cmax [7] [ng/mL] | half-life [8] [h] | half-life [9] [h] | clearance [10] [mL/min/kg] |
| --- | --- | --- | --- | --- | --- | --- | --- | --- | --- | --- | --- |
| COC(=O)c1cc(OCCCN(Cc2cccc(C(F)(F)F)c2Cl)CC(c2ccccc2)c2ccccc2)no1 | 26 | 63 | 65 | 68 | – | – | – | – | – | – | – |
| FC(F)(F)c1cccc(CN(CCCOc2cccc3[nH]ccc23)CC(c2ccccc2)c2ccccc2)c1Cl | 15 | 60 | 90 | 104 | 5 | – | – | – | – | – | – |
| Cc1cc(OCCCN(Cc2cccc(C(F)(F)F)c2Cl)CC(c2ccccc2)c2ccccc2)n[nH]1 | 15 | 23 | 25 | 30 | – | – | – | – | – | – | – |
| CS(=O)(=O)n1ccc2c(OCCCN(Cc3cccc(C(F)(F)F)c3Cl)CC(c3ccccc3)c3ccccc3)cccc21 | 7 | 20 | 50 | 72 | – | – | – | – | – | – | – |
| Cn1ccc2c(OCCCN(Cc3cccc(C(F)(F)F)c3Cl)CC(c3ccccc3)c3ccccc3)cccc21 | 12 | 39 | 57 | 86 | – | – | – | – | – | – | – |
| COC(=O)Cc1c[nH]c2ccc(OCCCN(Cc3cccc(C(F)(F)F)c3Cl)CC(c3ccccc3)c3ccccc3)cc12 | 288 | 630 | 19 | 36 | – | – | – | – | – | – | – |
| FC(F)(F)c1cccc(CN(CCCOc2n[nH]c3ccccc23)CC(c2ccccc2)c2ccccc2)c1Cl | 60 | 110 | 17 | 44 | – | – | – | – | – | – | – |
| Cc1cc(C)c2c(OCCCN(Cc3cccc(C(F)(F)F)c3Cl)CC(c3ccccc3)c3ccccc3)n[nH]c2n1 | 510 | > 3000 | – | 25 | – | – | – | – | – | – | – |
| FC(F)(F)c1cccc(CN(CCCOc2ccc3[nH]ccc3c2)CC(c2ccccc2)c2ccccc2)c1Cl | 23 | 226 | 36 | 78 | – | – | – | – | – | – | – |
| O=C(O)Cc1cccc(OCCCN(Cc2cccc(C(F)(F)F)c2Cl)CC(c2ccccc2)c2ccccc2)c1 | 25 | – | – | – | 50 | – | – | – | – | – | – |
| O=C(O)Cn1ccc2c(OCCCN(Cc3cccc(C(F)(F)F)c3Cl)CC(c3ccccc3)c3ccccc3)cccc21 | 4 | 14 | 132 | 105 | 15 | 45.4 | 1.15 | 1810 | 1.35 | 2.9 | 14.6 |
| Cc1cc(OCCCN(Cc2cccc(C(F)(F)F)c2Cl)CC(c2ccccc2)c2ccccc2)n2ncnc2n1 | 560 | 790 | 25 | 33 | – | – | – | – | – | – | – |
